From the supplement of paper PMC10307832

Legend:
Assay in all cases: relative viability (nuclei count vs DMSO), 5 days (fraction); higher = more cells survive
[1] = tested on: A549
Procedure, shortened: (§1)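 Lung cancer cell lines were pin-tool dosed in 1536-well plates on the day after seeding, with either a lone drug or a fixed anchor-drug dose plus five library-drug doses (not always all listed) in √10 steps. Nuclei were counted on 4× images after 5 days. Relative viability is the ratio of treated-well to vehicle-well nuclei counts, with each value a median of duplicate plates.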

[2] = tested on: CAL-12T
Procedure, shortened: as §1

[3] = tested on: Calu-6
Procedure, shortened: as §1

[4] = tested on: EBC-1
Procedure, shortened: as §1

[5] = tested on: IA-LM
Procedure, shortened: as §1

[6] = tested on: LK-2
Procedure, shortened: as §1

[7] = tested on: NCI-H1299
Procedure, shortened: as §1

[8] = tested on: NCI-H1650
Procedure, shortened: as §1

[9] = tested on: NCI-H1703
Procedure, shortened: as §1

C=C1C(=O)O[C@@H](CCCCCCCC)[C@@H]1C(=O)O [C-75] + CS(=O)(=O)N1CCN(Cc2cc3nc(-c4cccc5[nH]ncc45)nc(N4CCOCC4)c3s2)CC1 [Pictilisib] (partner 1 µM)
relative viability ([1]; first compound 0.08 µM): 0.475 | relative viability ([1]; first compound 0.253 µM): 0.571 | relative viability ([1]; first compound 0.8 µM): 0.514 | relative viability ([1]; first compound 2.53 µM): 0.309 | relative viability ([1]; first compound 8 µM): 0.497 | relative viability ([2]; first compound 0.08 µM): 0.58 | relative viability ([2]; first compound 0.253 µM): 0.624 | relative viability ([2]; first compound 0.8 µM): 0.306 | relative viability ([2]; first compound 2.53 µM): 0.292 | relative viability ([2]; first compound 8 µM): 0.486 | relative viability ([3]; first compound 0.08 µM): 0.985 | relative viability ([3]; first compound 0.253 µM): 1.07 | relative viability ([3]; first compound 0.8 µM): 0.811 | relative viability ([3]; first compound 2.53 µM): 0.714 | relative viability ([3]; first compound 8 µM): 0.817 | relative viability ([4]; first compound 0.08 µM): 0.43 | relative viability ([4]; first compound 0.253 µM): 0.355 | relative viability ([4]; first compound 0.8 µM): 0.315 | relative viability ([4]; first compound 2.53 µM): 0.361 | relative viability ([4]; first compound 8 µM): 0.179 | relative viability ([5]; first compound 0.08 µM): 0.448 | relative viability ([5]; first compound 0.253 µM): 0.294 | relative viability ([5]; first compound 0.8 µM): 0.266 | relative viability ([5]; first compound 2.53 µM): 0.358 | relative viability ([5]; first compound 8 µM): 0.375 | relative viability ([6]; first compound 0.08 µM): 0.444 | relative viability ([6]; first compound 0.253 µM): 0.662 | relative viability ([6]; first compound 0.8 µM): 0.555 | relative viability ([6]; first compound 2.53 µM): 0.461 | relative viability ([6]; first compound 8 µM): 0.396 | relative viability ([7]; first compound 0.08 µM): 0.785 | relative viability ([7]; first compound 0.253 µM): 0.825 | relative viability ([7]; first compound 0.8 µM): 0.737 | relative viability ([7]; first compound 2.53 µM): 0.826 | relative viability ([7]; first compound 8 µM): 0.634 | relative viability ([8]; first compound 0.08 µM): 0.632 | relative viability ([8]; first compound 0.253 µM): 0.691 | relative viability ([8]; first compound 0.8 µM): 0.521 | relative viability ([8]; first compound 2.53 µM): 0.474 | relative viability ([8]; first compound 8 µM): 0.619 | relative viability ([9]; first compound 0.08 µM): 0.247 | relative viability ([9]; first compound 0.253 µM): 0.266 | relative viability ([9]; first compound 0.8 µM): 0.235 | relative viability ([9]; first compound 2.53 µM): 0.214 | relative viability ([9]; first compound 8 µM): 0.249

O=C(O)c1ccc(-c2c[nH]c3ncc(-c4ccccc4)cc23)cc1C1CCCC1 + CS(=O)(=O)N1CCN(Cc2cc3nc(-c4cccc5[nH]ncc45)nc(N4CCOCC4)c3s2)CC1 [Pictilisib] (partner 1 µM)
relative viability ([1]; first compound 0.04 µM): 0.508 | relative viability ([1]; first compound 0.1265 µM): 0.537 | relative viability ([1]; first compound 0.4 µM): 0.504 | relative viability ([1]; first compound 1.265 µM): 0.291 | relative viability ([2]; first compound 0.04 µM): 0.478 | relative viability ([2]; first compound 0.1265 µM): 0.696 | relative viability ([2]; first compound 0.4 µM): 0.494 | relative viability ([2]; first compound 1.265 µM): 0.448 | relative viability ([3]; first compound 0.04 µM): 0.896 | relative viability ([3]; first compound 0.1265 µM): 1.05 | relative viability ([3]; first compound 0.4 µM): 0.822 | relative viability ([3]; first compound 1.265 µM): 0.667 | relative viability ([4]; first compound 0.04 µM): 0.43 | relative viability ([4]; first compound 0.1265 µM): 0.371 | relative viability ([4]; first compound 0.4 µM): 0.345 | relative viability ([4]; first compound 1.265 µM): 0.327 | relative viability ([5]; first compound 0.04 µM): 0.437 | relative viability ([5]; first compound 0.1265 µM): 0.363 | relative viability ([5]; first compound 0.4 µM): 0.344 | relative viability ([5]; first compound 1.265 µM): 0.402 | relative viability ([6]; first compound 0.04 µM): 0.754 | relative viability ([6]; first compound 0.1265 µM): 0.507 | relative viability ([6]; first compound 0.4 µM): 0.611 | relative viability ([6]; first compound 1.265 µM): 0.592 | relative viability ([7]; first compound 0.04 µM): 0.832 | relative viability ([7]; first compound 0.1265 µM): 0.809 | relative viability ([7]; first compound 0.4 µM): 0.69 | relative viability ([7]; first compound 1.265 µM): 0.584 | relative viability ([8]; first compound 0.04 µM): 0.585 | relative viability ([8]; first compound 0.1265 µM): 0.585 | relative viability ([8]; first compound 0.4 µM): 0.556 | relative viability ([8]; first compound 1.265 µM): 0.381 | relative viability ([9]; first compound 0.04 µM): 0.262 | relative viability ([9]; first compound 0.1265 µM): 0.298 | relative viability ([9]; first compound 0.4 µM): 0.272 | relative viability ([9]; first compound 1.265 µM): 0.224

Oc1nc(-c2ccc(C(F)(F)F)cc2)nc2c1CSCC2 [XAV939] + CS(=O)(=O)CCNCc1ccc(-c2ccc3ncnc(Nc4ccc(OCc5cccc(F)c5)c(Cl)c4)c3c2)o1 [Lapatinib] (partner 2 µM)
relative viability ([1]; first compound 0.08 µM): 1.1 | relative viability ([1]; first compound 0.253 µM): 0.985 | relative viability ([1]; first compound 0.8 µM): 0.897 | relative viability ([1]; first compound 2.53 µM): 0.765 | relative viability ([2]; first compound 0.08 µM): 0.729 | relative viability ([2]; first compound 0.253 µM): 0.664 | relative viability ([2]; first compound 0.8 µM): 0.525 | relative viability ([2]; first compound 2.53 µM): 0.426 | relative viability ([3]; first compound 0.08 µM): 1.08 | relative viability ([3]; first compound 0.253 µM): 0.945 | relative viability ([3]; first compound 0.8 µM): 0.991 | relative viability ([3]; first compound 2.53 µM): 0.903 | relative viability ([4]; first compound 0.08 µM): 0.206 | relative viability ([4]; first compound 0.253 µM): 0.205 | relative viability ([4]; first compound 0.8 µM): 0.218 | relative viability ([4]; first compound 2.53 µM): 0.209 | relative viability ([5]; first compound 0.08 µM): 0.901 | relative viability ([5]; first compound 0.253 µM): 0.64 | relative viability ([5]; first compound 0.8 µM): 0.687 | relative viability ([5]; first compound 2.53 µM): 0.483 | relative viability ([6]; first compound 0.08 µM): 0.979 | relative viability ([6]; first compound 0.253 µM): 0.981 | relative viability ([6]; first compound 0.8 µM): 1.04 | relative viability ([6]; first compound 2.53 µM): 0.928 | relative viability ([7]; first compound 0.08 µM): 0.989 | relative viability ([7]; first compound 0.253 µM): 1.01 | relative viability ([7]; first compound 0.8 µM): 0.962 | relative viability ([7]; first compound 2.53 µM): 0.97 | relative viability ([8]; first compound 0.08 µM): 0.762 | relative viability ([8]; first compound 0.253 µM): 0.726 | relative viability ([8]; first compound 0.8 µM): 0.836 | relative viability ([8]; first compound 2.53 µM): 0.454 | relative viability ([9]; first compound 0.08 µM): 1.21 | relative viability ([9]; first compound 0.253 µM): 1.08 | relative viability ([9]; first compound 0.8 µM): 1.15 | relative viability ([9]; first compound 2.53 µM): 0.959
